Test [1] deals with ATXN3 Pre-mRNA (exon 4 skipping). The test is described as follows: RT-qPCR Assay to Quantify Exon 4 Skipping in ATXN3 Pre-mRNA in Cells. The test is classed as cell-based. The settings on record: cells incubated with compound 24 h, normalised to GAPDH, 7-point concentration curve. The protocol: (§1) Test compounds were serially diluted 3.16-fold in 100% DMSO to generate a 7-point concentration curve. Aliquots of 0.5 μL of diluted compounds were transferred to a 96-well flat bottom plate by a liquid handler. An aliquot of 0.5 μL DMSO was also transferred to separate wells and used as controls. Duplicate samples were set up for each compound concentration and for the DMSO control.
Cells were thawed and incubated in cell culture media (DMEM, 10% FBS, and 1% antibiotic cocktail) for 72 h. Cells were trypsinized, counted, and re-suspended to a concentration of 100,000 cells/mL in cell culture media. A 100 μL aliquot of the cell suspensions were plated at 10,000 cells per well in the compound containing 96 well microtiter plate and incubated for in a cell culture incubator (37° C., 5% CO2, 100% relative humidity).
After 24 h, media was aspirated from the cells and 50 μL of the RCL2 lysis buffer (10 mM Tris-HCL pH 7.4, 150 mM NaCl, 0.33% IGEPAL® CA-630) was added to each well and incubated at room temperature for 1 min. Chilled nuclease free water (50 μL per well) was added and the plates were immediately transferred on ice. After 1 min on ice, plates were frozen at −80° C. overnight.
Preparation of RT-qPCR Reaction Mixture:
An aliquot of 2 μL/well of the cell lysates was transferred using the liquid handler to the Armadillo 384-Well PCR plate containing 8 μL/well of the RT-qPCR reaction mixture that was prepared as detailed above. The plates were then sealed with MicroAmp™ Optical Adhesive Film followed by spinning down for 1 min and placed in the CFX384 thermocycler (BioRad).
The RT-qPCR was carried out at the following temperatures for the indicated time: • Step 1: 48° C. (30 min) • Step 2: 95° C. (10 min) • Step 3: 95° C. (15 sec) • Step 4: 60° C. (1 min); then, repeated Steps 3 and 4 for a total of 40 cycles.
The percent exon 4 skipping was calculated for each dose of compound treatment using Equations 1 and 2.
Data were fit to a dose response curve and the IC50 was interpolated using XLfit® statistical and curve fitting package.
An IC50 value between >2.0 μM and ≤3.0 μM is indicated by one star (*). […] IC50 value between >0.5 μM and ≤1.0 μM is indicated by four stars (****). An IC50 value ≤0.5 μM is indicated by five stars (*****).
In general terms: In qPCR the cycle at which signal appears reflects the starting amount.

For test [2], the system named is Endogenous Total ATXN3 (tATXN3) Protein. In words: Endogenous Total ATXN3 (tATXN3) Protein Assay (MSD immunoassay of cell lysates). The test is classed as cell-based. To be noted: cells incubated with compound 48 h; 7-point concentration curve; MSD plate readout. The protocol: Meso Scale Discovery (MSD) 96-well or 384-well plates were coated overnight at 4° C. with Ataxin 3 mouse monoclonal antibody (Invitrogen, MA3-082) at a concentration of […] in PBS (30 μL per well). Plates were then washed three times with 300 μL wash buffer (0.05% TWEEN®-20, polyethylene glycol sorbitan monolaurate, in PBS) and blocked (Meso Scale Diagnostics, R93BA-1; 5% BSA in PBS) for 2 h at room temperature with rotational shaking and then washed three times with wash buffer.
as §1
Cells were thawed and incubated in cell culture media (DMEM, 10% FBS, and 1% antibiotic cocktail) for 72 h. Cells were trypsinized, counted, and re-suspended to a concentration of 100,000 cells/mL in cell culture media. A 100 μL aliquot of the cell suspensions were plated at 10,000 cells per well in the compound containing 96 well microtiter plate and incubated for in a cell culture incubator (37° C., 5% CO2, 100% relative humidity). After 48 h, the medium was removed and 50-100 μL of lysis buffer (Meso Scale Diagnostics, R60TX-2) containing 1× halt protease inhibitor cocktail of (Thermo Scientific, Halt™ Protease Inhibitor Cocktail, 78430) per well was added to cells to provide a “cell lysate”. The plate was placed on a shaker at 4° C. for 30 minutes, then stored at −80° C.
Cell lysate samples (25 μL) were transferred to the antibody-coated MSD plate and incubated overnight at 4° C. After removal of the lysates, the plate was washed three times with wash buffer, and 25 μL of Ataxin 3 recombinant rabbit monoclonal antibody (Invitrogen, #702788) secondary antibody (diluted to 0.25 μg/mL in 0.05% TWEEN®-20 in blocking buffer) was added to each well and incubated with shaking for 1-2 h at room temperature. Following incubation with the secondary antibody, the wells were rinsed with wash buffer and then 25 μL of Anti Rabbit Antibody Goat SULFO-TAG Labeled (Meso Scale Diagnostics, R32AB-1) detecting antibody (diluted to 0.25 μg/mL in 0.05% TWEEN®-20 in blocking buffer) was added to each well and incubated with shaking for 1 h at room temperature. After rinsing three times with wash buffer, 150 μL of Read Buffer T with surfactant (tris-based buffer containing tripropylamine, Meso Scale Diagnostics, R92TC-1) were added to each empty well, and the plate was imaged on a SI 6000 imager (MSD) according to manufacturers' instructions provided for 96- or 384-well plates.

The structures appear in SMILES notation. A value given as a limit tells only on which side of the number the result lay.

The IC50 is the midpoint of a concentration-inhibition curve. For `CC(C)[C@H](N)Cc1cc2nc(Cl)nc(NCc3ccco3)c2s1` [Cpd 5, 6-[(2R)-2-amino-3-methylbutyl]-2-chloro-N-[(furan-2-yl)methyl]thieno[3,2-d]pyrimidin-4-amine], the figures for the IC50 in test [1] and in test [2] were 500 to 1000 nM and not above 500 nM, respectively.

On to `CC(C)(C)[C@H](N)Cc1cc2nc(Cl)nc(NCc3ccco3)c2s1` [Cpd 7, 6-[(2R)-2-amino-3,3-dimethylbutyl]-2-chloro-N-[(furan-2-yl)methyl]thieno[3,2-d]pyrimidin-4-amine], for which the “IC50 (exon 4 skipping in ATXN3 pre-mRNA)” value in test [1] is “inactive”. The “IC50 (average, total ATXN3 protein)” value in test [2] is “inactive”.

On to `Cc1c(C[C@H](C)N)sc2c(NCc3ccco3)nc(Cl)nc12` [Cpd 12, 6-[(2S)-2-aminopropyl]-2-chloro-N-[(furan-2-yl)methyl]-7-methylthieno[3,2-d]pyrimidin-4-amine], for which the half-maximal inhibitory concentration (IC50) in test [1] and in test [2] was not above 500 nM in each case.

On to `Cc1nc(NCc2ccco2)c2sc(C[C@H](C)N)c(C)c2n1` [Cpd 15, 6-[(2S)-2-aminopropyl]-N-[(furan-2-yl)methyl]-2,7-dimethylthieno[3,2-d]pyrimidin-4-amine], for which the IC50 in test [1] was not above 500 nM; in test [2], 500 to 1000 nM.

Turning to `Cc1csc2c(NCc3ccncc3)nc(Cl)nc12` [Cpd 23, 2-chloro-7-methyl-N-[(pyridin-4-yl)methyl]thieno[3,2-d]pyrimidin-4-amine], in test [1], the “IC50 (exon 4 skipping in ATXN3 pre-mRNA)” value was “inactive”. Also, in test [2], the “IC50 (average, total ATXN3 protein)” value was “inactive”.

For `Cc1ccc(CNc2nc(Cl)nc3c(C)c(C[C@H](C)N)sc23)o1` [Cpd 24, 6-[(2S)-2-aminopropyl]-2-chloro-7-methyl-N-[(5-methylfuran-2-yl)methyl]thieno[3,2-d]pyrimidin-4-amine], the IC50 in test [1] was 1500 to 2000 nM; in test [2] it was more than 2000 nM.

On to `Cc1csc(CNc2nc(Cl)nc3c(C)c(C[C@H](C)N)sc23)n1` [Cpd 27, 6-[(2S)-2-aminopropyl]-2-chloro-7-methyl-N-[(4-methyl-1,3-thiazol-2-yl)methyl]thieno[3,2-d]pyrimidin-4-amine], for which, in test [1], the IC50 fell in the range of 2000 to 3000 nM. For the same compound, the “IC50 (average, total ATXN3 protein)” value in test [2] is “inactive”.

As to `Cc1c(C[C@H](C)N)sc2c(NCc3cccs3)nc(Cl)nc12` [Cpd 28, 6-[(2S)-2-aminopropyl]-2-chloro-7-methyl-N-[(thiophen-2-yl)methyl]thieno[3,2-d]pyrimidin-4-amine], the IC50 in test [1] and in test [2] was not above 500 nM throughout.

Regarding `Cc1c(C[C@H](C)N)sc2c(NCc3nccs3)nc(Cl)nc12` [Cpd 29, 6-[(2S)-2-aminopropyl]-2-chloro-7-methyl-N-[(1,3-thiazol-2-yl)methyl]thieno[3,2-d]pyrimidin-4-amine], the IC50 in test [1] and in test [2] was not above 500 nM throughout.

Consider `Cc1ccoc1CNc1nc(Cl)nc2c(C)c(C[C@H](C)N)sc12` [Cpd 30, 6-[(2S)-2-aminopropyl]-2-chloro-7-methyl-N-[(3-methylfuran-2-yl)methyl]thieno[3,2-d]pyrimidin-4-amine], for which the IC50 in test [1] lay in the range of 1000 to 1500 nM; in test [2], 1500 to 2000 nM.

Turning to `Cc1cnc(CNc2nc(Cl)nc3c(C)c(C[C@H](C)N)sc23)s1` [Cpd 31, 6-[(2S)-2-aminopropyl]-2-chloro-7-methyl-N-[(5-methyl-1,3-thiazol-2-yl)methyl]thieno[3,2-d]pyrimidin-4-amine], the values for the IC50 in test [1] and in test [2] were 2000 to 3000 nM and more than 2000 nM, respectively.

`Cc1c(C[C@H](C)N)sc2c(NCc3ccc(F)s3)nc(Cl)nc12` [Cpd 33, 6-[(2S)-2-aminopropyl]-2-chloro-N-[(5-fluorothiophen-2-yl)methyl]-7-methylthieno[3,2-d]pyrimidin-4-amine]: the IC50 in test [1] and in test [2] was not above 500 nM in each case.

On to `Cc1c(C[C@H](C)N)sc2c(NCc3ccncc3F)nc(Cl)nc12` [Cpd 35, 6-[(2S)-2-aminopropyl]-2-chloro-N-[(3-fluoropyridin-4-yl)methyl]-7-methylthieno[3,2-d]pyrimidin-4-amine], for which the IC50 in test [1] and in test [2] was not above 500 nM in each case.

For `Cc1c(C[C@H](C)N)sc2c(NCc3ccco3)nc(Br)nc12` [Cpd 38, 6-[(2S)-2-aminopropyl]-2-bromo-N-[(furan-2-yl)methyl]-7-methylthieno[3,2-d]pyrimidin-4-amine], the IC50 in test [1] and in test [2] was not above 500 nM throughout.

On to `Cc1c(C[C@H](C)N)sc2c(NCc3ccno3)nc(Cl)nc12` [Cpd 39, 6-[(2S)-2-aminopropyl]-2-chloro-7-methyl-N-[(1,2-oxazol-5-yl)methyl]thieno[3,2-d]pyrimidin-4-amine], for which the IC50 in test [1] and in test [2] was not above 500 nM throughout.

For the compound `C[C@H](N)Cc1sc2c(NCc3ccco3)nc(Cl)nc2c1Br` [Cpd 40, 6-[(2S)-2-aminopropyl]-7-bromo-2-chloro-N-[(furan-2-yl)methyl]thieno[3,2-d]pyrimidin-4-amine], the IC50 in test [1] and in test [2] was not above 500 nM each time.

For the compound `Cc1c([C@H](C)N)sc2c(NCc3ccco3)nc(Cl)nc12` [Cpd 47, 6-[(1S)-1-aminoethyl]-2-chloro-N-[(furan-2-yl)methyl]-7-methylthieno[3,2-d]pyrimidin-4-amine], the “IC50 (exon 4 skipping in ATXN3 pre-mRNA)” value in test [1] is “inactive”. Further, in test [2], the “IC50 (average, total ATXN3 protein)” value is “inactive”.

On to `Cc1c(C[C@@H](N)CCF)sc2c(NCc3ccco3)nc(Cl)nc12` [Cpd 51, 6-[(2S)-2-amino-4-fluorobutyl]-2-chloro-N-[(furan-2-yl)methyl]-7-methylthieno[3,2-d]pyrimidin-4-amine], for which the IC50 in test [1] and in test [2] was not above 500 nM each time.

On to `Cc1c(C[C@@H]2CCOC(=O)N2)sc2c(NCc3ccco3)nc(Cl)nc12` [Cpd 52, (4S)-4-[(2-chloro-4-{[(furan-2-yl)methyl]amino}-7-methylthieno[3,2-d]pyrimidin-6-yl)methyl]-1,3-oxazinan-2-one], for which, in test [1], the “IC50 (exon 4 skipping in ATXN3 pre-mRNA)” value is “inactive”. Moreover, the IC50 in test [2] was more than 2000 nM.

In the case of `Cc1c(C[C@H](C)N)sc2c(NCc3ncccn3)nc(Cl)nc12` [Cpd 55, 6-[(2S)-2-aminopropyl]-2-chloro-7-methyl-N-[(pyrimidin-2-yl)methyl]thieno[3,2-d]pyrimidin-4-amine], the results for the IC50 in test [1] and in test [2] were 2000 to 3000 nM and more than 2000 nM, respectively.

Consider `Cc1c(C[C@@H](N)CO)sc2c(NCc3cccs3)nc(Cl)nc12` [Cpd 56, (2R)-2-amino-3-(2-chloro-7-methyl-4-{[(thiophen-2-yl)methyl]amino}thieno[3,2-d]pyrimidin-6-yl)propan-1-ol], for which the IC50 in test [1] and in test [2] was not above 500 nM throughout.

As for `Cc1c(C2CCNC2)sc2c(NCc3ccco3)nc(Cl)nc12` (centres unmarked) [Cpd 57, 2-chloro-N-[(furan-2-yl)methyl]-7-methyl-6-(pyrrolidin-3-yl)thieno[3,2-d]pyrimidin-4-amine], in test [1], the “IC50 (exon 4 skipping in ATXN3 pre-mRNA)” value is “inactive”. In addition, in test [2], the “IC50 (average, total ATXN3 protein)” value is “inactive”.

The record behind these values is patent US20240043444A1, “METHODS FOR TREATING SPINOCEREBELLAR ATAXIA TYPE 3” (PTC Therapeutics, Inc., priority 2021, published 2024).
